Test results reported in ChEMBL document CHEMBL6153048, “Synthesis and pharmacological evaluation of natural product diphyllin derivatives against head and neck squamous cell carcinoma” (Eur J Med Chem, 2025).
Activity calls are given as the source filed them. The rule behind the calls is not given here.

Columns and labels:
CAL-27 [1] = assay: Inhibition of cell migration in human CAL-27 cells at 1 to 1000 nM incubated for 24 hrs by wound healing assay; type: functional, cell-based; conditions: dose 1-1000 nM
Homo sapiens [2] = species on record: Homo sapiens; assay: Inhibition of V-ATPase activity in lysosome of human CAL-27 cells using Lyso-Tracker Red as fluorescent probe assessed as decrease in fluorescence intensity at 0.5 uM incubated for 24 hrs by flow cytometry analysis
Homo sapiens [3] = species on record: Homo sapiens; assay: Inhibition of V-ATPase activity in lysosome of human CAL-27 cells using Lyso-Tracker Red as fluorescent probe assessed as decrease in fluorescence intensity at 0.25 uM incubated for 24 hrs by flow cytometry analysis
CAL-27 [4] = assay: Induction of cell cycle arrest in human CAL-27 cells assessed as downregulation of CDK4 expression incubated for 24 hrs by Western blotting analysis; type: functional, cell-based; conditions: dose 1-1000 nM
CAL-27 [5] = assay: Antiproliferative activity against human CAL-27 cells assessed as inhibition rate at 0.1 uM incubated for 72 hrs by MTT assay relative to control; type: functional
[6] = Antiproliferative activity against human HN-6 cells assessed as inhibition rate at 0.1 uM incubated for 72 hrs by MTT assay relative to control; type: functional
[7] = Antiproliferative activity against human WSU HN-30 cells assessed as inhibition rate at 0.1 uM incubated for 72 hrs by MTT assay relative to control; type: functional; conditions: WSU-HN30
SCC-9 [8] = assay: Antiproliferative activity against human SCC-9 cells assessed as inhibition rate at 0.1 uM incubated for 72 hrs by MTT assay relative to control; type: functional
SCC-25 [9] = assay: Antiproliferative activity against human SCC-25 cells assessed as inhibition rate at 0.1 uM incubated for 72 hrs by MTT assay relative to control; type: functional
[10] = Antiproliferative activity against human L02 cells assessed as inhibition rate at 0.1 uM incubated for 72 hrs by MTT assay relative to control; type: toxicity, cell-based
CAL-27 [11] = assay: Cytotoxicity against human CAL-27 cells incubated for 72 hrs by MTT assay; type: functional, cell-based; conditions: CAL-27, 72 h
[12] = Cytotoxicity against human HN-6 cells incubated for 72 hrs by MTT assay; type: functional, cell-based; conditions: HN-6, 72 h
[13] = Cytotoxicity against human […] incubated for 72 hrs by MTT assay; type: functional, cell-based; conditions: WSU-HN30, 72 h
SCC-9 [14] = assay: Cytotoxicity against human SCC-9 cells incubated for 72 hrs by MTT assay; type: functional, cell-based; conditions: SCC-9, 72 h
SCC-25 [15] = assay: Cytotoxicity against human SCC-25 cells incubated for 72 hrs by MTT assay; type: functional, cell-based; conditions: SCC-25, 72 h
[16] = Cytotoxicity against human L02 cells incubated for 72 hrs by MTT assay; type: toxicity, cell-based
MDA-MB-231 = assay: Cytotoxicity against human MDA-MB-231 cells incubated for 72 hrs by MTT assay; type: functional, cell-based; conditions: MDA-MB-231, 72 h
SK-BR-3 = assay: Cytotoxicity against human SK-BR-3 cells incubated for 72 hrs by MTT assay; type: functional, cell-based; conditions: SK-BR-3, 72 h
K562 = assay: Cytotoxicity against human K562 cells incubated for 72 hrs by MTT assay; type: functional, cell-based; conditions: K562, 72 h
Jurkat = assay: Cytotoxicity against human Jurkat cells incubated for 72 hrs by MTT assay; type: functional, cell-based
KYSE-510 = assay: Cytotoxicity against human KYSE-510 cells incubated for 72 hrs by MTT assay; type: functional, cell-based; conditions: KYSE-510, 72 h
PANC-1 = assay: Cytotoxicity against human PANC-1 cells incubated for 72 hrs by MTT assay; type: functional, cell-based; conditions: PANC-1, 72 h
ASPC1 = assay: Cytotoxicity against human ASPC1 cells incubated for 72 hrs by MTT assay; type: functional, cell-based; conditions: ASPC1, 72 h
HepG2 = assay: Cytotoxicity against human HepG2 cells incubated for 72 hrs by MTT assay; type: functional, cell-based; conditions: HepG2, 72 h
SNU-449 = assay: Cytotoxicity against human SNU-449 cells incubated for 72 hrs by MTT assay; type: functional, cell-based; conditions: SNU-449, 72 h
SNU-182 = assay: Cytotoxicity against human SNU-182 cells incubated for 72 hrs by MTT assay; type: functional, cell-based; conditions: SNU-182, 72 h
[17] = Cytotoxicity against human NCI-H322 cells incubated for 72 hrs by MTT assay; type: functional, cell-based; conditions: NCI-H322, 72 h
CAL-27 [18] = assay: Antiproliferative activity against human CAL-27 cells assessed as inhibition of cell communities at 10 uM treated for 11 days by plate clone formation assay; type: functional, cell-based; conditions: time 11.0 day
CAL-27 [19] = assay: Induction of cell cycle arrest in human CAL-27 cells assessed as downregulation of cyclin D1 expression incubated for 24 hrs by Western blotting analysis; type: functional, cell-based; conditions: dose 1-1000 nM
CAL-27 [20] = assay: Induction of apoptosis in human CAL-27 cells assessed as necrotic cells at 1 nM incubated for 72 hrs by Annexin V-FITC/propidium iodide staining based flow cytometry analysis (reference value: 0.03%); type: functional
CAL-27 [21] = assay: Induction of apoptosis in human CAL-27 cells assessed as necrotic cells at 10 nM incubated for 72 hrs by Annexin V-FITC/propidium iodide staining based flow cytometry analysis (reference value: 0.03%); type: functional
CAL-27 [22] = assay: Induction of apoptosis in human CAL-27 cells assessed as necrotic cells at 100 nM incubated for 72 hrs by Annexin V-FITC/propidium iodide staining based flow cytometry analysis (reference value: 0.03%); type: functional
CAL-27 [23] = assay: Induction of apoptosis in human CAL-27 cells assessed as necrotic cells at 1000 nM incubated for 72 hrs by Annexin V-FITC/propidium iodide staining based flow cytometry analysis (reference value: 0.03%); type: functional
[24] = Half life in ICR mouse at 1 mg/kg, iv measured upto 24 hrs by LC-MS/MS analysis; type: ADME, organism-based; conditions: in vivo
[25] = Cmax in ICR mouse at 1 mg/kg, iv measured upto 24 hrs by LC-MS/MS analysis; type: ADME, organism-based; conditions: in vivo
[26] = AUC (0 to t) in ICR mouse at 1 mg/kg, iv measured upto 24 hrs by LC-MS/MS analysis; type: ADME, organism-based; conditions: in vivo
[27] = Plasma clearance in ICR mouse at 1 mg/kg, iv measured upto 24 hrs by LC-MS/MS analysis; type: ADME, organism-based
[28] = Cmax in ICR mouse at 3 mg/kg, po measured upto 24 hrs by LC-MS/MS analysis; type: ADME, organism-based; conditions: in vivo
[29] = AUC (0 to t) in ICR mouse at 3 mg/kg, po measured upto 24 hrs by LC-MS/MS analysis; type: ADME, organism-based; conditions: in vivo
[30] = Oral bioavailability in ICR mouse at 3 mg/kg measured upto 24 hrs by LC-MS/MS analysis; type: ADME, organism-based; conditions: in vivo
CAL-27 [31] = assay: Antitumor activity against human CAL-27 cells xenografted in BALB/c mouse model assessed as tumor volume change at 0.6 mg/kg, iv treated four times a week for 30 days; type: functional; conditions: CAL-27, 720 h, time 30 day, read-out: TGI
CAL-27 [32] = assay: Antitumor activity against human CAL-27 cells xenografted in BALB/c mouse model assessed as reduction in tumor weight at 0.6 mg/kg, iv treated four times a week for 30 days; type: functional; design: scale not given: the % may be the effect or the level left; conditions: time 30 day
CAL-27 [33] = assay: Induction of apoptosis in human CAL-27 cells assessed as viable cells at 10 nM incubated for 72 hrs by Annexin V-FITC/propidium iodide staining based flow cytometry analysis (reference value: 88.23%); type: functional; conditions: read-out: Activity

COc1cc2c(O[C@@H]3O[C@@H]4CO[C@@H](c5ccsc5)O[C@H]4[C@H](O)[C@H]3O)c3c(c(-c4ccc5c(c4)OCO5)c2cc1OC)C(=O)OC3
inhibition (CAL-27 [1]): Active | Activity (Homo sapiens [2]): Active | Activity (Homo sapiens [3]): Active | Activity (CAL-27 [4]): Dose-dependent-effect; Showed Effective Suppression | inhibition at 0.1 µM (CAL-27 [5]): 81.5% | inhibition at 0.1 µM [6]: 69.4% | inhibition at 0.1 µM [7]: 65.5% | inhibition at 0.1 µM (SCC-9 [8]): 76.3% | inhibition at 0.1 µM (SCC-25 [9]): 64.7% | inhibition at 72 h, 0.1 µM [10]: 23.5% | IC50 (CAL-27 [11]): 4.37 nM | IC50 [12]: 9.34 nM | IC50 [13]: 77.8 nM | IC50 (SCC-9 [14]): 5.5 nM | IC50 (SCC-25 [15]): 7.44 nM | IC50 at 72 h [16]: > 10000 nM | IC50 (MDA-MB-231): 48.3 nM | IC50 (SK-BR-3): 2.4 nM | IC50 (K562): 2.8 nM | IC50 (Jurkat): 166 nM | IC50 (KYSE-510): 10.9 nM | IC50 (PANC-1): 405 nM | IC50 (ASPC1): 283 nM | IC50 (HepG2): 20.7 nM | IC50 (SNU-449): 544 nM | IC50 (SNU-182): 45.5 nM | IC50 [17]: 298 nM | Activity (CAL-27 [18]): Active | Activity (CAL-27 [19]): Dose-dependent-effect; Showed Effective Suppression | Activity (CAL-27 [20]): 0.11% | Activity (CAL-27 [21]): 3% | Activity (CAL-27 [22]): 4.68% | Activity (CAL-27 [23]): 9.61% | half-life [24]: 31.8 min | Cmax [25]: 609 ng/mL | AUC(0-t) at 24 h [26]: 541 ng·h/mL | clearance [27]: 31.6 mL/min/kg | Cmax [28]: 306 ng/mL | AUC(0-t) at 24 h [29]: 338 ng·h/mL | bioavailability [30]: 20.9% | inhibition in vivo at 0.6 mg/kg (CAL-27 [31]): 23.3% | Activity (CAL-27 [32]): 46%

COc1cc2c(O)c3c(c(-c4ccc5c(c4)OCO5)c2cc1OC)C(=O)OC3 [DIPHYLLIN]
inhibition (CAL-27 [1]): Active | Activity (Homo sapiens [2]): inactive | Activity (Homo sapiens [3]): inactive | Activity (CAL-27 [4]): Dose-dependent-effect | inhibition at 0.1 µM (CAL-27 [5]): 13.7% | inhibition at 0.1 µM [6]: 30.8% | inhibition at 0.1 µM [7]: 9.52% | inhibition at 0.1 µM (SCC-9 [8]): 16.6% | inhibition at 0.1 µM (SCC-25 [9]): 23.3% | inhibition at 72 h, 0.1 µM [10]: 7.61% | IC50 (CAL-27 [11]): 2000 nM | IC50 [12]: 2210 nM | IC50 [13]: 1370 nM | IC50 (SCC-9 [14]): 1350 nM | IC50 (SCC-25 [15]): 2390 nM | IC50 at 72 h [16]: > 10000 nM | IC50 (MDA-MB-231): > 10000 nM | IC50 (SK-BR-3): > 10000 nM | IC50 (K562): 343 nM | IC50 (Jurkat): 1660 nM | IC50 (KYSE-510): 2040 nM | IC50 (PANC-1): > 10000 nM | IC50 (ASPC1): > 10000 nM | IC50 (HepG2): > 10000 nM | IC50 (SNU-449): > 10000 nM | IC50 (SNU-182): > 10000 nM | IC50 [17]: > 10000 nM | Activity (CAL-27 [18]): Active | Activity (CAL-27 [19]): Dose-dependent-effect | Activity (CAL-27 [20]): 0.14% | viability at 0.01 µM (CAL-27 [33]): 94.8% | Activity (CAL-27 [21]): 0.07% | Activity (CAL-27 [22]): 0.08% | Activity (CAL-27 [23]): 0.09% | half-life [24]: 6.48 min | Cmax [25]: 160 ng/mL | AUC(0-t) at 24 h [26]: 43.6 ng·h/mL | clearance [27]: 409 mL/min/kg | Cmax [28]: 11.9 ng/mL | AUC(0-t) at 24 h [29]: 3.56 ng·h/mL | bioavailability [30]: 2.7% | inhibition in vivo at 0.6 mg/kg (CAL-27 [31]): 42.2% | Activity (CAL-27 [32]): 33.3%
